Where a name gives a salt, the structure may show the parent alone.
test system: RSV ATCC VR-1540 (A2); assay: microbe, parasite or virus in culture; format: cell-based; conditions: human respiratory syncytial virus, HEp-2, 96 h; Hep2 cells, incubated for 4 days, CPE detected with XTT assay (absorbance 450 nm); read-out: EC50 (nmol/L) against RSV A2 strain

With NC1CN(c2cc3n4nc(cc4n2)[C@@H]2CCCCN2C(=O)c2cc(F)ccc2OCC(=O)NCCN3C2CC2)C1 [Example 14, (18aS)-13-(3-aminoazetidin-1-yl)-11-cyclopropyl-2-fluoro-8,9,10,11,19,20,21,22-octahydro-18aH,24H-18,15-(metheno)pyrido[2,1-l]pyrimido[6,1-h][1,4,7,9,10,13]benzoxapentaazacyclohexadecine-7,24(6H)-dione] as the compound, how does the EC50 read?
Its EC50 is 2.31 nmol/L.

How did the EC50 turn out when COc1cc2n3nc(cc3n1)[C@@H]1CCCCN1C(=O)c1cc(F)ccc1OCC(=O)NCCN2C [Example 20, (18aS)-2-fluoro-I 3-methoxy-11-methyl-8,9,10,11,19,20,21,22-octahydro-18aH,24H-18,15-(metheno)pyrido[2,1-l]pyrimido[6,1-h][1,4,7,9,10,13]benzoxapentaazacyclohexadecine-7,24(6H)-dione] was run?
Its EC50 is 1.26 nmol/L.

Which EC50 does the source give for CN1CCNC(=O)COc2ccc(F)cc2C(=O)N2CCCC[C@H]2c2cc3nc(CN)cc1n3n2 [Example 25, (18aS)-13-(aminomethyl)-2-fluoro-11-methyl-8,9,10,11,19,20,21,22-octahydro-18aH,24H-18,15-(metheno)pyrido[2,1-l]pyrimido[6,1-h][1,4,7,9,10,13]benzoxapentaazacyclohexadecine-7,24(6H)-dione] here?
Its EC50 is about 14 nmol/L.

How did the EC50 turn out when CCc1ccc2c(c1)C(=O)N1CCCC[C@H]1c1cc3nc(OCCN)cc(n3n1)N(C)CCNC(=O)CO2 [Example 50, (18aS)-13-(2-aminoethoxy)-2-ethyl-1-methyl-8,9,10,11,19,20,21,22-octahydro-18aH,24H-18,15-(metheno)pyrido[2,1-l]pyrimido[6,1-h][1,4,7,9,10,13]benzoxapentaazacyclohexadecine-7,24(6H)-dione] was run?
The EC50 was 2.18 nmol/L.

How did the EC50 turn out when COc1ccc2c(c1)C(=O)N1CCCC[C@H]1c1cc3nc(N4CCC4)cc(n3n1)N(C)CCNC(=O)CO2 [Example 51, (18aS)-13-(azetidin-1-yl)-2-methoxy-11-methyl-8,9,10,11,19,20,21,22-octahydro-18aH,24H-18,15-(metheno)pyrido[2,1-l]pyrimido[6,1-h][1,4,7,9,10,13]benzoxapentaazacyclohexadecine-7,24(6H)-dione] was run?
Its EC50 is 1.21 nmol/L.

How did the EC50 turn out when CN1CCNC(=O)COc2ccc(C(C)(F)F)cc2C(=O)N2CCCC[C@H]2c2cc3nc(N4CCC4)cc1n3n2 [Example 54, (18aS)-13-(azetidin-1-yl)-2-(1,1-difluoroethyl)-11-methyl-8,9,10,11,19,20,21,22-octahydro-18aH,24H-18,15-(metheno)pyrido[2,1-l]pyrimido[6,1-h][1,4,7,9,10,13]benzoxapentaazacyclohexadecine-7,24(6H)-dione] was run?
The EC50 was 3.2 nmol/L.

For Cc1c(N2CC(N)C2)nc2cc3nn2c1N(C)CCNC(=O)COc1ccc(F)cc1C(=O)N1CCCC[C@@H]31 [Example 61, (18aS)-13-(3-aminoazetidin-1-yl)-2-fluoro-11,12-dimethyl-8,9,10,11,19,20,21,22-octahydro-18aH,24H-18,15-(metheno)pyrido[2,1-l]pyrimido[6,1-h][1,4,7,9,10,13]benzoxapentaazacyclohexadecine-7,24(6H)-dione], which EC50 is on record?
The EC50 was 1.77 nmol/L.

Cc1c(N2CCC2)nc2cc3nn2c1N(C)CCN(C)C(=O)COc1ccc(F)cc1C(=O)N1CCCC[C@@H]31 [Example 63, (18aS)-13-(azetidin-1-yl)-2-fluoro-8,11,12-trimethyl-8,9,10,11,19,20,21,22-octahydro-18aH, 24H-18,15-(metheno)pyrido[2,1-l]pyrimido[6,1-h][1,4,7,9,10,13]benzoxapentaazacyclohexadecine-7,24(6H)-dione] was tested. Which EC50 did it give?
The EC50 was 2.49 nmol/L.

How did the EC50 turn out when Cc1c(CCCN)nc2cc3nn2c1N(C)CCNC(=O)COc1ccc(Cl)cc1C(=O)N1CCCC[C@@H]31 [Example 75, (18aS)-13-(3-aminopropyl)-2-chloro-11,12-dimethyl-8,9,10,11,19,20,21,22-octahydro-18aH, 24H-18,15-(metheno)pyrido[2,1-l]pyrimido[6,1-h][1,4,7,9,10,13]benzoxapentaazacyclohexadecine-7,24 (6H)-dione] was run?
The EC50 was 1 nmol/L.

Cc1c(CCCCN)nc2cc3nn2c1N(C)CCNC(=O)COc1ccc(Cl)cc1C(=O)N1CCCC[C@@H]31 [Example 78, (18aS)-13-(4-aminobutyl)-2-chloro-11,12-dimethyl-8,9,10,11,19,20,21,22-octahydro-18aH,24H-18,15-(metheno)pyrido[2,1-l]pyrimido[6,1-h][1,4,7,9,10,13]benzoxapentaazacyclohexadecine-7,24(6H)-dione] was tested. Which EC50 did it give?
Its EC50 is 1.7 nmol/L.

With CN1CCNC(=O)COc2ccc(Cl)cc2C(=O)N2CCCCC2c2cc3nc(N4CC[C@H](N)C4)c(F)c1n3n2 (stereo partly drawn) [Example 87, (18aS)-13-[(3S)-3-aminopyrrolidin-1-yl]-2-chloro-12-fluoro-11-methyl-8,9,10,11,19,20,21,22-octahydro-18aH,24H-18,15-(metheno)pyrido[2,1-l]pyrimido[6,1-h][1,4,7,9,10,13]benzoxapentaazacyclohexadecine-7,24(6H)-dione hydrochloride] as the compound, how does the EC50 read?
Its EC50 is 3.77 nmol/L.

With [2H]C([2H])([2H])N1CCNC(=O)COc2ccc(F)cc2C(=O)N2CCCC[C@H]2c2cc3nc(C4CC4)cc1n3n2 [Example 94, (18aS)-13-cyclopropyl-2-fluoro-11-trideuteriomethyl-8,9,10,11,19,20,21,22-octahydro-18aH, 24H-18,15-(metheno)pyrido[2,1-l]pyrimido[6,1-h][1,4,7,9,10,13]benzoxapentaazacyclohexadecine-7,24(6H)-dione] as the compound, how does the EC50 read?
Its EC50 is 0.207 nmol/L.

Which EC50 does the source give for CN1CCNC(=O)COc2ccc(I)cc2C(=O)N2CCCC[C@H]2c2cc3nc(C4CC4)cc1n3n2 [Example 97, (18aS)-13-cyclopropyl-2-iodo-1 l-methyl-8,9,10,11,19,20,21,22-octahydro-18aH,24H-18,15-(metheno)pyrido[2,1l-]pyrimido[6,1-h][1,4,7,9,10,13]benzoxapentaazacyclohexadecine-7,24(6H)-dione] here?
The EC50 was 0.76 nmol/L.

CN1CCNC(=O)COc2ccc(C3CC3)cc2C(=O)N2CCCC[C@H]2c2cc3nc(C4CC4)cc1n3n2 [Example 99, (18aS)-2,13-dicyclopropyl-11-methyl-8,9,10,11,19,20,21,22-octahydro-18aH,24H-18,15-(metheno)pyrido[2,1-l]pyrimido[6,1-h][1,4,7,9,10,13]benzoxapentaazacyclohexadecine-7,24(6H)-dione] was tested. Which EC50 did it give?
The EC50 was 0.571 nmol/L.

Which EC50 does the source give for CCCc1cc2n3nc(cc3n1)[C@@H]1CCCCN1C(=O)c1cc(CN)ccc1OCC(=O)NCCN2C [Example 101, (18aS)-2-(aminomethyl)-11-methyl-13-propyl-8,9,10,11,19,20,21,22-octahydro-18aH,24H-18,15-(metheno)pyrido[2,1-l]pyrimido[6,1-h][1,4,7,9,10,13]benzoxapentaazacyclohexadecine-7,24(6H)-dione] here?
Its EC50 is 11.9 nmol/L.

How did the EC50 turn out when Cc1ccc2c(c1)C(=O)N1CCCC[C@H]1c1cc3nc(C4CC4)cc(n3n1)N(C)CCNC(=O)CO2 [Example 102, (18aS)-13-cyclopropyl-2,11-dimethyl-8,9,10,11,19,20,21,22-octahydro-18aH,24H-18,15-(metheno)pyrido[2,1-l]pyrimido[6,1-h][1,4,7,9,10,13]benzoxapentaazacyclohexadecine-7,24(6H)-dione] was run?
Its EC50 is 0.239 nmol/L.

— patent US20230069963A1, “PYRAZOLO[1,5-A]PYRIMIDINE MACROCYCLIC COMPOUND” (priority 2018, published 2023)
